Entries after “also recorded” stand apart in the source; their conditions may differ.
Test system: MOG Peptide-Induced EAE
Assay: MOG peptide-induced EAE
Type: in vivo, Mice (C57BL/6J OlaHsd)
Settings: 100 and 150 mg/kg p.o. qd, day 14 to day 28 post-immunization; compared to vehicle
Description: Mice (C57BL/6J OlaHsd) were commercially purchased from Harlan Laboratories BV (9 weeks old, females). All the animals were allowed to adapt for 7 days prior the start of the experiment and housed in IVC racks (max. 4 mice/XJ Type cage). The animals were given access to food and water ad libitum. Mice were immunized at with subcutaneous injection on the lower back of myelin oligodendrocyte glycoprotein peptide ([…]; in house produced; 200 μg/100 emulsified in 4 mg/ml complete Freund adjuvant (CFA, Sigma). Pertussis toxin (Fluka; 200 ng per mouse) was administered intraperitoneally on day 0 and day 2. Evaluation of EAE: The mice were observed and weighed daily. They were assessed for clinical signs on a scale from 0 to 5, with graduations of 0.5 for intermediate scores. 0: no clinical signs, 1: Limp tail/complete loss of tail tonus; 2: Clear hind limb weakness; 3: Complete bilateral hind limb paralysis; 4: Fore limbs and hind limbs paralysis; 5: Death. Supplementary food and gel food were provided inside the cage once first clinical signs appeared. Animals were treated for 14 days with 100 and 150 mg/kg of BLZ945, qd, p.o. 10 ml/kg from day 14 to day 28 post-immunization. BLZ945 was prepared in 0.5% methylcellulose in water and 0.1% Tween-80.

## CNC(=O)c1cc(Oc2ccc3nc(N[C@@H]4CCCC[C@H]4O)sc3c2)ccn1 [BLZ945, 4-(2-((1R,2R)-2-hydroxycyclohexylamino)benzothiazol-6-yloxy)-N-methylpicolinamide]
  EAE clinical score / disease progression: did not alter disease progression; also recorded: No difference
  EAE disease onset/incidences: similar
  Weight change in EAE mice: similar

Reference: patent US20200093801A1, “NEW METHODS FOR THE TREATMENT OF MULTIPLE SCLEROSIS” (Novartis AG, priority 2017, published 2020)
